Results as given in US20250241890A1, “1,4-DIUREAS AND 1,4-DITHIOUREAS AND USES THEREOF” (Purdue Research Foundation, priority 2024, published 2025).

System: M17D-TR/αS-3K::YFP cells
Test: α-Syn inclusion-forming neuroblastoma cell experiment (Incucyte)
Assay type: cell-based
Conditions: M17D αS-3K::YFP cells; for cell confluence: relative to DMSO vehicle
Experimental: FIG. 11. Compound 1 prevents αS inclusion formation. M17D cells expressing the inclusion-prone αS-3K::YFP fusion protein (dox-inducible) were treated with 0.1% DMSO (vehicle; “0 μM”) as well as 1.25, 2.5, 5 and 10 μM of compounds 1, 2 and 8 at t=24 hours after plating. Cells were induced with doxycycline at t=48 hours. A) Incucyte-based analysis of punctate YFP signals relative to 0.1% DMSO was done at t=96 hours (N=3 independent experiments, n=6-18 individual wells total (0 μM, n=18; 10 μM, n=6; all other concentrations, n=12). B) Same as panel A, but confluence fold changes relative to DMSO vehicle (0 μM) were plotted. C) Representative IncuCyte images of reporter cells treated with vehicle vs. 10 μM compounds 1, 2, or 8 (t=96 h), green channel. Arrows indicate αS-rich YFP-positive inclusions. Scale bar, 50 μm. All data are presented as fold-changes relative to DMSO control +/−standard deviation. One-way ANOVA, Dunnett's post-hoc test; *, p<0.05; **, p<0.01; ***, p<0.001.
Chemical and peptide source. Dimethylsulfoxide (DMSO) and thioflavin-T (ThT) were purchased from Alfa Aesar (Ward Hill, MA). Recombinant α-synuclein (α-syn) was procured from rPeptide (WatKinsville, GA). The recombinant p-tau isoform 1N4R was prepared as published previously (Fortin et al. 2021, Sui et al. 2015, Liu et al. 2020). Concerning the preparation of tau 0N4R, a bacterial expression plasmid consisting of the vector pET30a carrying a cDNA encoding the human Tau 0N4R isoform was a kind gift of Dr. Benjamin Wolozin (Boston University). E. coli stock (Rosetta BL21 E. coli (CamR) containing pET30a [0N4R tau wt] (KanR)) was grown in LB medium supplemented with kanamycin (50 μg/mL) and chloramphenicol (50 μg/mL). Protein over-expression was induced by the addition of 1 mM IPTG for ˜18 hours at 37° C., and cells were pelleted by centrifugation at 6,000 g for 15 minutes at 4° C. The cells were resuspended in lysis buffer (10 mM Hepes, pH 7.4, 50 mM NaCl, 1 mM MgCl2, 1 mM PMSF, 1× PIC, and 0.5 mM DTT) and lysed by sonication at 30 seconds “On” and 1 minute “Off” at ˜30-45% power for ˜3-5 minutes. Lysate was centrifuged at 10,000 rpm for 10 minutes at 4° C., and supernatant was transferred with 7.8 ml (total) of 3M NaCl. The lysate was incubated for 10 minutes in 80° C. water bath, then cooled for 10 minutes in an ice bath. The lysate was centrifuged at 10,000 rpm at 4° C. for 10 minutes, and the supernatant was transferred to a new tube. The supernatant was dialyzed overnight against cation exchange buffer (50 mM MES, […], 1 mM DTT, pH 6.0). The dialysate was loaded onto a HiPrep SP HP column, and proteins were eluted with a linear gradient ranging from 50 mM to 1 M NaCl. General Characterizations. ^1H and ^13C {1H} NMR spectra were recorded using a 500 MHz Bruker instrument working at a frequency of 500 MHz for ^1H and at 126 MHz for ^13C. Chemical shifts are reported in ppm using residual solvent resonances as internal reference (δ 2.50 and δ 39.51 for ^1H and ^13C in DMSO-d6, respectively). ^1H NMR data are reported as follows. b=broad, s=singlet, d=doublet, t=triplet, q=quartet, and m=multiplet. Coupling constants are given in hertz. The purity of all compounds and synthetic intermediates was judged to be 95% or better based on ^1H NMR. […] Thioflavin fluorescence assays. Thioflavin fluorescence assays were used to monitor fibril formation of commercial recombinant α-syn at a final concentration of 2 μM and treated with control DMSO and different compounds. […]

With `O=C(Nc1ccc(NC(=O)Nc2cccc3[nH]ccc23)cc1)Nc1cccc2[nH]ccc12` [Compound 1, 3-(1H-indol-4-yl)-1-(4-{[(1H-indol-4-yl)carbamoyl]amino}phenyl)urea] the cell confluence (1.25 to 10 μM) was “did not exhibit changes in the cell confluence”.

`S=C(Nc1ccc(NC(=S)Nc2cccc3[nH]ccc23)cc1)Nc1cccc2[nH]ccc12` [Compound 2, 3-(1H-indol-4-yl)-1-(4-{[(1H-indol-4-yl)carbamothioyl]amino}phenyl)thiourea] was tested, and the cell confluence (1.25 to 10 μM) was “did not exhibit changes in the cell confluence” and the “α-syn inclusion formation (punctate YFP signals relative to DMSO)” value (5 and 10 μM, t=96 hours) was “increased the inclusions”.

`S=C(Nc1ccc(NC(=S)Nc2cccc3cc[nH]c23)cc1)Nc1cccc2cc[nH]c12` [Compound 8, 3-(1H-indol-7-yl)-1-(4-{[(1H-indol-7-yl)carbamothioyl]amino}phenyl)thiourea] was tested, and the cell confluence (1.25 to 10 μM) was “did not exhibit changes in the cell confluence” and the “numbers of α-syn inclusions” value (1.25 to 10 μM, t=96 hours) was “very minimal changes in the numbers of inclusions”.
